Measured values published in the kinase profiling compilation of Christmann-Franck et al. (2016).

Legend:
Test in all cases: radiometric filter-binding kinase assay, Kinaseprofiler
[1] = tested on: AXL (human), P30530 [Q764R]; conditions: compound 1.0 µM; ATP 90 µM
[2] = molecular target: CAMK1 (human) (UniProt Q14012); conditions: compound 1.0 µM; ATP 200 µM
[3] = molecular target: CSNK2A1 CSNK2B CSNK2A2 (human) (UniProt P19784+P68400+P67870); conditions: compound 1.0 µM; ATP 15 µM
[4] = molecular target: DAPK2 (human) (UniProt Q9UIK4); conditions: compound 1.0 µM; ATP 10 µM
[5] = molecular target: EGFR (human) (UniProt P00533); conditions: compound 1.0 µM; ATP 10 µM
[6] = molecular target: EPHB3 (human) (UniProt P54753); conditions: compound 1.0 µM; ATP 90 µM
[7] = molecular target: FGFR2 (human) (UniProt P21802); conditions: compound 1.0 µM; ATP 90 µM
[8] = tested on: GSK3A (human), P49840 [S449A]; conditions: compound 1.0 µM; ATP 10 µM
[9] = molecular target: HCK (human) (UniProt P08631); conditions: compound 1.0 µM; ATP 70 µM
[10] = molecular target: HIPK3 (human) (UniProt Q9H422); conditions: compound 1.0 µM; ATP 15 µM
[11] = molecular target: IGF1R (human) (UniProt P08069); conditions: compound 1.0 µM; ATP 200 µM
[12] = molecular target: LCK (human) (UniProt P06239); conditions: compound 1.0 µM; ATP 90 µM
[13] = molecular target: MAP2K7 (human) (UniProt O14733); conditions: compound 1.0 µM; ATP 10 µM
[14] = molecular target: MAP3K7 (human) (UniProt O43318); conditions: compound 1.0 µM; ATP 45 µM
[15] = molecular target: MAPK10 (human) (UniProt P53779); conditions: compound 1.0 µM; ATP 10 µM
[16] = molecular target: MAPK12 (human) (UniProt P53778); conditions: compound 1.0 µM; ATP 15 µM
[17] = molecular target: MAPK8 (human) (UniProt P45983); conditions: compound 1.0 µM; ATP 45 µM
[18] = molecular target: MINK1 (human) (UniProt Q8N4C8); conditions: compound 1.0 µM; ATP 185 µM
[19] = molecular target: MKNK2 (human) (UniProt Q9HBH9); conditions: compound 1.0 µM; ATP 120 µM
[20] = molecular target: NLK (human) (UniProt Q9UBE8); conditions: compound 1.0 µM; ATP 200 µM
[21] = molecular target: PASK (human) (UniProt Q96RG2); conditions: compound 1.0 µM; ATP 15 µM
[22] = molecular target: PDGFRA (human) (UniProt P16234); conditions: compound 1.0 µM; ATP 120 µM
[23] = molecular target: PDPK1 (human) (UniProt O15530); conditions: compound 1.0 µM; ATP 10 µM
[24] = molecular target: PIM1 (human) (UniProt P11309); conditions: compound 1.0 µM; ATP 90 µM
[25] = molecular target: PRKCB1 (human) (UniProt P05771); conditions: compound 1.0 µM; ATP 10 µM
[26] = tested on: PRKCH (human), P24723 [V108L/G109R/L392Q]; conditions: compound 1.0 µM; ATP 45 µM
[27] = molecular target: PRKCZ (human) (UniProt Q05513); conditions: compound 1.0 µM; ATP 15 µM
[28] = molecular target: PTK2B (human) (UniProt Q14289); conditions: compound 1.0 µM; ATP 90 µM
[29] = molecular target: PTK6 (human) (UniProt Q13882); conditions: compound 1.0 µM; ATP 15 µM
[30] = molecular target: RPS6KA2 KD1 KD2 (human) (UniProt Q15349); conditions: compound 1.0 µM; ATP 10 µM
[31] = molecular target: RPS6KA4 KD1 KD2 (human) (UniProt O75676); conditions: compound 1.0 µM; ATP 45 µM
[32] = molecular target: SGK3 (human) (UniProt Q96BR1); conditions: compound 1.0 µM; ATP 155 µM
[33] = molecular target: SRPK2 (human) (UniProt P78362); conditions: compound 1.0 µM; ATP 10 µM
[34] = molecular target: SRPK3 (human) (UniProt Q9UPE1); conditions: compound 1.0 µM; ATP 15 µM
[35] = molecular target: STK3 (human) (UniProt Q13188); conditions: compound 1.0 µM; ATP 155 µM
[36] = molecular target: WNK2 (human) (UniProt Q9Y3S1); conditions: compound 1.0 µM; ATP 200 µM
[37] = molecular target: WNK3 (human) (UniProt Q9BYP7); conditions: compound 1.0 µM; ATP 200 µM
[38] = molecular target: ZAP70 (human) (UniProt P43403); conditions: compound 1.0 µM; ATP 15 µM

Sequence of EPHB3 (human) (P54753 whole entry, looked up): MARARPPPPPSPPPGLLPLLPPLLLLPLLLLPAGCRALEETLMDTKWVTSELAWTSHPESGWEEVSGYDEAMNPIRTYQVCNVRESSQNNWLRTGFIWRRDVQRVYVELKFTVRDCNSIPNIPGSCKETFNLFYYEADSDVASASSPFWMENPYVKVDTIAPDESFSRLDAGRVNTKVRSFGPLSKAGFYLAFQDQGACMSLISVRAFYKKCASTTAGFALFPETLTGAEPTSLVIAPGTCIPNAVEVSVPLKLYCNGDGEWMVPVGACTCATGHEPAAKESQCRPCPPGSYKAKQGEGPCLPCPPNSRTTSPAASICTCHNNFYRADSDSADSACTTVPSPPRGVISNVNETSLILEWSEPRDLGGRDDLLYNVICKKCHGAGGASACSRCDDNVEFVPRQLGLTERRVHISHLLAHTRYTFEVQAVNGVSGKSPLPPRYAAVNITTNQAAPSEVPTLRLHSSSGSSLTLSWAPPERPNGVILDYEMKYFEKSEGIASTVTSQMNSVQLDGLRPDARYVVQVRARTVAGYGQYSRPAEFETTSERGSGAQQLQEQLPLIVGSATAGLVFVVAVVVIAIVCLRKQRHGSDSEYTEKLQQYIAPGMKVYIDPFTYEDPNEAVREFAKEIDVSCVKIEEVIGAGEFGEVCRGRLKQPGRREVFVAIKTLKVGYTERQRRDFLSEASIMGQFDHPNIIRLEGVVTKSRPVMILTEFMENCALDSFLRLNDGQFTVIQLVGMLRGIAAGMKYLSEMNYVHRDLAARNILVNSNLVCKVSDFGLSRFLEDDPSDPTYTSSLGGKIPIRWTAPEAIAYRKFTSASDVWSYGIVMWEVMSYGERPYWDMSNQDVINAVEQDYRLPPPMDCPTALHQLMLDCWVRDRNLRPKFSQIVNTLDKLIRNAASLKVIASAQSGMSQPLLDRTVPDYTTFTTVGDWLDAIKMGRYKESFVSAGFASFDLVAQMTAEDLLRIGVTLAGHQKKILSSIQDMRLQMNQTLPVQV
Sequence of WNK3 (human) (Q9BYP7 whole entry, looked up): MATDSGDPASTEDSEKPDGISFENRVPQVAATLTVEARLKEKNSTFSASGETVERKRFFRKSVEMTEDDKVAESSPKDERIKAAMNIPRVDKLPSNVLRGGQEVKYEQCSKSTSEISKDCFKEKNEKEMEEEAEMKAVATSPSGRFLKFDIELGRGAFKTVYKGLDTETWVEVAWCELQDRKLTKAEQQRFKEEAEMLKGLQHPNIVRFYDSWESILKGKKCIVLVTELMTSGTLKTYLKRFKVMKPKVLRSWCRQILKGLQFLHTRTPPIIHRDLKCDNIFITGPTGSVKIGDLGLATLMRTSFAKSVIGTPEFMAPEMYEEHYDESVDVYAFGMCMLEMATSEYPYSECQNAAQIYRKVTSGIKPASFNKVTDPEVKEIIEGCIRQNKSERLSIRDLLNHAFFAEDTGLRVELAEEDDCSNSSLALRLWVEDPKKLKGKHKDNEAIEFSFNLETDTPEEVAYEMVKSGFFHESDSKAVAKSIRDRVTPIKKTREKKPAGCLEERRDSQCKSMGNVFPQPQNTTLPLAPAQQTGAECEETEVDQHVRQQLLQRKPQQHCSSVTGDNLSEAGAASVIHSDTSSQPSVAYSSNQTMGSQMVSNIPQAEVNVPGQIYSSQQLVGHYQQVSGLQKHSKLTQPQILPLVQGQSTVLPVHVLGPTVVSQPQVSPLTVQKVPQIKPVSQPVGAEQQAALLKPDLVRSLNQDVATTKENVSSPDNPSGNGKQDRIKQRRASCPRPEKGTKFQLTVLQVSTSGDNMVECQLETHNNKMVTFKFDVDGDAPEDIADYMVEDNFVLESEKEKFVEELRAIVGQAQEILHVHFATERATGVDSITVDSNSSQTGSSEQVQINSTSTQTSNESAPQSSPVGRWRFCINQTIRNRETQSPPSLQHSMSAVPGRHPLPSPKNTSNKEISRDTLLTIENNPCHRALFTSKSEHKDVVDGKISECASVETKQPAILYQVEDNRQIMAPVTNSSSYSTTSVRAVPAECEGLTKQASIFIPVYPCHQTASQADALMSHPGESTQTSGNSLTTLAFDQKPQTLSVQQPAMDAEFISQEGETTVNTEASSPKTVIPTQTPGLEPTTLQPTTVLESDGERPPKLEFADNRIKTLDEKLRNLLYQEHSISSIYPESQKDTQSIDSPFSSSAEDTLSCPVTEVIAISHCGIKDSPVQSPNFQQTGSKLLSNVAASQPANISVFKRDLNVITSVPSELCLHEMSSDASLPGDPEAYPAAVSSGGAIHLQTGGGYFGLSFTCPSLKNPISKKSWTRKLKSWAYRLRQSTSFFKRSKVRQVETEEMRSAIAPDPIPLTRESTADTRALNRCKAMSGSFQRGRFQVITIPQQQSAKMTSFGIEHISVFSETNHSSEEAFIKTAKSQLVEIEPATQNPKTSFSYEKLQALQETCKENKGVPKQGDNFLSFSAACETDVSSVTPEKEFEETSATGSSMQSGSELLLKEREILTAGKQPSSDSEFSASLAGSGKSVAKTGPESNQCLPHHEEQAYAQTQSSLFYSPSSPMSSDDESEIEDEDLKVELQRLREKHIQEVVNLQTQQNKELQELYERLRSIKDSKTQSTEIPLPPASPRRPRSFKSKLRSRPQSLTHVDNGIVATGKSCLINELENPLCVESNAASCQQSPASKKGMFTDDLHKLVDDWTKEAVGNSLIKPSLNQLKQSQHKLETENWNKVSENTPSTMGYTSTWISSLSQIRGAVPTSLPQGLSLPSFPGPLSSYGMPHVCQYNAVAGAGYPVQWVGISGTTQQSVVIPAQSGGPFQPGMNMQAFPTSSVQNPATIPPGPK
Sequence of PASK (human) (Q96RG2 whole entry, looked up): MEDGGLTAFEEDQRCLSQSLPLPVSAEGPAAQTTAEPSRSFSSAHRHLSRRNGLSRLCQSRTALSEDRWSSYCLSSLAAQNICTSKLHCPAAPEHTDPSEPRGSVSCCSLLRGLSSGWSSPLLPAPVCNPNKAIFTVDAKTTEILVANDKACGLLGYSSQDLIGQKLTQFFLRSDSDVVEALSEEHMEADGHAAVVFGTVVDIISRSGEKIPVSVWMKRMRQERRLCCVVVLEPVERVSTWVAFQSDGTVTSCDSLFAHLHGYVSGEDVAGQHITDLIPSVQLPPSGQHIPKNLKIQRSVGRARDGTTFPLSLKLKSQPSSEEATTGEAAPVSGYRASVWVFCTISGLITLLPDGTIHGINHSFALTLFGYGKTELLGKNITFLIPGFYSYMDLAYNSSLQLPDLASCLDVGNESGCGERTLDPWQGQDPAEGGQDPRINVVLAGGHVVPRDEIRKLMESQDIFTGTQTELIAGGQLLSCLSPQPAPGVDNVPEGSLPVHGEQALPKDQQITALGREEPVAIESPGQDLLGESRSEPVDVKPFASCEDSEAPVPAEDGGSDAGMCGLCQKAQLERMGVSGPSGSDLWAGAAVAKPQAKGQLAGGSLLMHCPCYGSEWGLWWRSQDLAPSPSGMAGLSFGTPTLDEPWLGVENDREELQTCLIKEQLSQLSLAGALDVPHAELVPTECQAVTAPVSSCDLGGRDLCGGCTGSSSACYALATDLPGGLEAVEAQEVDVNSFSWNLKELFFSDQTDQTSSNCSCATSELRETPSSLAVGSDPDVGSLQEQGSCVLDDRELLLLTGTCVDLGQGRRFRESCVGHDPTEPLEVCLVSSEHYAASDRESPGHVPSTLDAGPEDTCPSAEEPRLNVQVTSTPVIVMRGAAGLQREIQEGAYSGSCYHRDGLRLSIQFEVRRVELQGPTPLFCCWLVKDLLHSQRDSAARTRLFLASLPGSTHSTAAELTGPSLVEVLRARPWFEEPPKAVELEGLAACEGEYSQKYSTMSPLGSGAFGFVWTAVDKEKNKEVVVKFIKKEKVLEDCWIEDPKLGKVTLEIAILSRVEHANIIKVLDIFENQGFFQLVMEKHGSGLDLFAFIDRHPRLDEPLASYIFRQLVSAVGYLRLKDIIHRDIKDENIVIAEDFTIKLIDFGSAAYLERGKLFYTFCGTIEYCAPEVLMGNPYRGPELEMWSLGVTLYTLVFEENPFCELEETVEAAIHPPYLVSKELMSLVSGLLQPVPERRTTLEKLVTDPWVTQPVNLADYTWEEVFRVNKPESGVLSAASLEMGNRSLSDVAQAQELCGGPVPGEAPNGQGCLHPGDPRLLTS
Sequence of PDPK1 (human) (O15530 whole entry, looked up): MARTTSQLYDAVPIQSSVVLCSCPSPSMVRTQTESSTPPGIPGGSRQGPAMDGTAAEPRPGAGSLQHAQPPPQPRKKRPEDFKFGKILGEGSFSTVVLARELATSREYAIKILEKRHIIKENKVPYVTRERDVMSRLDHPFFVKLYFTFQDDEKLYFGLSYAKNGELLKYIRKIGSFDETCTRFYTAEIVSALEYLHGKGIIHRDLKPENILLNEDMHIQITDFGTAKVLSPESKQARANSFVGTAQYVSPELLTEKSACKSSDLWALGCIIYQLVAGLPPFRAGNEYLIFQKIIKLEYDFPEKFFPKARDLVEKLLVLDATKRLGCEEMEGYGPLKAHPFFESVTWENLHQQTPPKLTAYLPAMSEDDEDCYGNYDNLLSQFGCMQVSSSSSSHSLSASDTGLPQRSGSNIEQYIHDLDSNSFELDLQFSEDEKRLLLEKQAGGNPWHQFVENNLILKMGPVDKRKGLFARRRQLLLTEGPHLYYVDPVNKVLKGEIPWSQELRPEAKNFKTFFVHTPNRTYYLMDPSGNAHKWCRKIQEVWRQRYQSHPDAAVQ
Sequence of PIM1 (human) (P11309 whole entry, looked up): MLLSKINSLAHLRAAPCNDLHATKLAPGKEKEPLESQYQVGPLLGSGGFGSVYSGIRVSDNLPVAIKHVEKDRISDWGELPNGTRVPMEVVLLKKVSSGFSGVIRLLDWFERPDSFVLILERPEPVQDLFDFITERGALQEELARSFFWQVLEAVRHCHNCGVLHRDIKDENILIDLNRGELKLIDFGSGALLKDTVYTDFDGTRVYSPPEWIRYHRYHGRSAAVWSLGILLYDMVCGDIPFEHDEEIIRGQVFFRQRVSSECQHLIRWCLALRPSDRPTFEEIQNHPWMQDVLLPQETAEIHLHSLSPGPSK

CN(C)S(=O)(=O)Nc1ccc2ccc3ncc(-c4cnn(C)c4)cc3c(=O)c2c1
residual activity [1]: 17%
residual activity [2]: 110%
residual activity [3]: 117%
residual activity [4]: 91%
residual activity [5]: 100%
residual activity [6]: 98%
residual activity [7]: 12%
residual activity [8]: 86%
residual activity [9]: 33%
residual activity [10]: 102%
residual activity [11]: 101%
residual activity [12]: 50%
residual activity [13]: 69%
residual activity [14]: 75%
residual activity [15]: 53%
residual activity [16]: 103%
residual activity [17]: 98%
residual activity [18]: 105%
residual activity [19]: 33%
residual activity [20]: 103%
residual activity [21]: 91%
residual activity [22]: 59%
residual activity [23]: 105%
residual activity [24]: 101%
residual activity [25]: 104%
residual activity [26]: 126%
residual activity [27]: 95%
residual activity [28]: 101%
residual activity [29]: 103%
residual activity [30]: 66%
residual activity [31]: 121%
residual activity [32]: 94%
residual activity [33]: 104%
residual activity [34]: 83%
residual activity [35]: 90%
residual activity [36]: 126%
residual activity [37]: 78%
residual activity [38]: 127%
